Measured values published in PubChem BioAssay (NCI).
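Growth conditions: 96-well plates. Treatment: test compound, 48 hours, 5 concentrations. Analysis: linear interpolation between bracketing concentrations; unreached endpoints set to highest concentration. Here, GI50 denotes the concentration required for 50% inhibition of growth. The concentration for full growth arrest is given as TGI.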

Experiments:
Test in all cases: growth of human tumour cells (NCI), 48 h
NCI-H226 lung = system: NCI-H226 lung
NCI-H23 lung = system: NCI-H23 lung
NCI-H460 lung = system: NCI-H460 lung
NCI-H522 lung = system: NCI-H522 lung
OVCAR-3 ovarian = system: OVCAR-3 ovarian
OVCAR-4 ovarian = system: OVCAR-4 ovarian
OVCAR-5 ovarian = system: OVCAR-5 ovarian
OVCAR-8 ovarian = system: OVCAR-8 ovarian
PC-3 prostate = system: PC-3 prostate
RPMI-8226 leukemia = system: RPMI-8226 leukemia
RXF 393 renal = system: RXF 393 renal
SF-268 CNS = system: SF-268 CNS
SF-295 CNS = system: SF-295 CNS
SF-539 CNS = system: SF-539 CNS
SK-MEL-2 melanoma = system: SK-MEL-2 melanoma
SK-MEL-28 melanoma = system: SK-MEL-28 melanoma
SK-MEL-5 melanoma = system: SK-MEL-5 melanoma
SK-OV-3 ovarian = system: SK-OV-3 ovarian
SN12C renal = system: SN12C renal
SNB-19 CNS = system: SNB-19 CNS
SR leukemia = system: SR leukemia
SW-620 colon = system: SW-620 colon
T-47D breast = system: T-47D breast
TK-10 renal = system: TK-10 renal
U251 CNS = system: U251 CNS
UACC-62 melanoma = system: UACC-62 melanoma
UO-31 renal = system: UO-31 renal

SMILES: Cc1ccccc1Nc1nnc(-c2c[nH]c3ccccc23)o1
- GI50 (NCI-H226 lung): 4.44 µM
- TGI (NCI-H226 lung): > 100 µM
- GI50 (NCI-H23 lung): 3.38 µM
- TGI (NCI-H23 lung): > 100 µM
- GI50 (NCI-H460 lung): 2.88 µM
- TGI (NCI-H460 lung): > 100 µM
- GI50 (NCI-H522 lung): 0.85 µM
- TGI (NCI-H522 lung): 6.34 µM
- GI50 (OVCAR-3 ovarian): 0.889 µM
- TGI (OVCAR-3 ovarian): > 100 µM
- GI50 (OVCAR-4 ovarian): 8.06 µM
- TGI (OVCAR-4 ovarian): > 100 µM
- GI50 (OVCAR-5 ovarian): 4.13 µM
- TGI (OVCAR-5 ovarian): > 100 µM
- GI50 (OVCAR-8 ovarian): 3.44 µM
- TGI (OVCAR-8 ovarian): > 100 µM
- GI50 (PC-3 prostate): 3.41 µM
- TGI (PC-3 prostate): > 100 µM
- GI50 (RPMI-8226 leukemia): 3.03 µM
- TGI (RPMI-8226 leukemia): > 100 µM
- GI50 (RXF 393 renal): 2.25 µM
- TGI (RXF 393 renal): 9.91 µM
- GI50 (SF-268 CNS): 5.15 µM
- TGI (SF-268 CNS): > 100 µM
- GI50 (SF-295 CNS): 0.567 µM
- TGI (SF-295 CNS): 6 µM
- GI50 (SF-539 CNS): 1.9 µM
- TGI (SF-539 CNS): 5.22 µM
- GI50 (SK-MEL-2 melanoma): 1.16 µM
- TGI (SK-MEL-2 melanoma): 4.4 µM
- GI50 (SK-MEL-28 melanoma): 3.91 µM
- TGI (SK-MEL-28 melanoma): > 100 µM
- GI50 (SK-MEL-5 melanoma): 2.32 µM
- TGI (SK-MEL-5 melanoma): > 100 µM
- GI50 (SK-OV-3 ovarian): 3.52 µM
- TGI (SK-OV-3 ovarian): > 100 µM
- GI50 (SN12C renal): 3.25 µM
- TGI (SN12C renal): > 100 µM
- GI50 (SNB-19 CNS): 3.36 µM
- TGI (SNB-19 CNS): > 100 µM
- GI50 (SR leukemia): 0.527 µM
- TGI (SR leukemia): > 100 µM
- GI50 (SW-620 colon): 0.882 µM
- TGI (SW-620 colon): > 100 µM
- GI50 (T-47D breast): 12.6 µM
- TGI (T-47D breast): > 100 µM
- GI50 (TK-10 renal): 7.65 µM
- TGI (TK-10 renal): > 100 µM
- GI50 (U251 CNS): 3.18 µM
- TGI (U251 CNS): > 100 µM
- GI50 (UACC-62 melanoma): 1.13 µM
- TGI (UACC-62 melanoma): > 100 µM
- GI50 (UO-31 renal): 1.88 µM
- TGI (UO-31 renal): > 100 µM
